Test results reported in ChEMBL document CHEMBL1127239, “Novel cytotoxic annonaceous acetogenins: (2,4-cis and trans)-bulladecinones from annona bullata (annonaceae)” (Bioorg Med Chem Lett, 1994).
Values after ≈ are worked out from the molar mass of the structure shown.

Assays:
[1] = tested on: A549; experiment: Compound was tested for cytotoxic activity against human lung carcinoma (A-549); assay type: functional; conditions: for EC50: Homo sapiens, A549, read-out: ED50 (the source's name)
[2] = tested on: HT-29; experiment: Compound was tested for cytotoxic activity against human colon adenocarcinoma (HT-29); assay type: functional; conditions: for EC50: Homo sapiens, HT-29, read-out: ED50 (the source's name)
[3] = tested on: MCF7; experiment: Compound was tested for cytotoxic activity against human breast carcinoma (MCF-7); assay type: functional; conditions: for EC50: Homo sapiens, MCF7, read-out: ED50 (the source's name)
[4] = (§1) Compound was tested for lethal concentration in Brine shrimp lethality test (BST); assay type: organism-based; conditions: artemia, in vivo
[5] = tested on: Artemia; experiment: as §1; assay type: organism-based; conditions: in vivo

CCCCCCCCCCC(O)C(O)CCC(O)C1CCC(C2CCC(CCCCCCCC3CC(CC(C)=O)C(=O)O3)O2)O1 (stereo in doubt)
EC50 [1]: 0.0337 ng/mL (≈ 0.0527 nM) | EC50 [2]: 229 ng/mL (≈ 358 nM) | EC50 [3]: 1.07 ng/mL (≈ 1.67 nM) | LC50 [4]: 137 ng/mL (≈ 214 nM)

CCCCCCCCCCC(O)C(O)CCC(O)C1CCC(C2CCC(CCCCCCCC3CC(CC(C)=O)C(=O)O3)O2)O1 (trans isomer)
ED50 [1]: 0.0337 ng/mL (≈ 0.0527 nM) | ED50 [2]: 229 ng/mL (≈ 358 nM) | ED50 [3]: 1.07 ng/mL (≈ 1.67 nM) | LC50 [5]: 137 ng/mL (≈ 214 nM)

COc1cccc2c1C(=O)c1c(O)c3c(c(O)c1C2=O)C[C@@](O)(C(=O)CO)C[C@@H]3O[C@H]1C[C@H](N)[C@H](O)[C@H](C)O1 [DOXORUBICIN]
EC50 [1]: 0.153 ng/mL (≈ 0.281 nM) | EC50 [2]: 0.558 ng/mL (≈ 1.03 nM) | EC50 [3]: 13.8 ng/mL (≈ 25.4 nM) | LC50 [5]: 80 ng/mL (≈ 147 nM)
